Here are results for 24 compounds from US12257247B2 (Monte Rosa Therapeutics AG, priority 2023, dated 2025).

The target of the assay is T1, VAV1 (Homo sapiens, UniProt P15498+Q96SW2).
T1 construct: A heterozygous VAV1 C-terminal HiBiT knock-in pool was generated at Monte Rosa Therapeutics from a clonal Jurkat cell; endogenous in cells; host or cells: Jurkat clone stably expressing LgBiT, homozygous GSPT1-G575N; heterozygous VAV1-HiBiT knock-in pool
Briefly: VAV1 degradation activity, VAV1-HiBiT knock-in Jurkat luminescence assay (Example A, Table 1). The conditions noted are these: VAV1-HiBiT knock-in Jurkat cells; for Dmax: Jurkat. Format: cell-based. On the procedure:
Cells were plated at 10,000 cells per well using Multiflo (BioTek) or Multi Drop Combi (Thermo Fisher) in 384-well white solid bottom plates (Corning, 3570BC) in 25 ul volume in RPMI 1640 media (Thermo Fischer, 22400105) containing 10% FBS (Corning, 35-075-CV), 1% Penicillin/Streptomycin (ThermoFisher Scientific, 15140-122), and 1% Endurazine (Nano-Glo Endurazine Live Cell Substrate (Promega, N2571)). Cells were incubated for ˜16 hours at 37° C., 5% CO2. 25 nL of a compound at 10 μM were dosed into the plate using an Echo® 650 liquid handler (Labcyte). Cells were incubated at 37° C., 5% CO2 and signal was read at 6 and 24 hours after compound addition on a Pherastar FSX using “LUM plus” optic module.
Analysis was performed in Scinamic (Scinamic, Cambridge, MA). Luminescence response (R) was calculated by the formula: response=100*(S−N)/(P−N) where S is the signal of the well, N and P the mean negative and positive control values respectively of the same plate. The luminescence response was then fitted in Scinamic using a 3-parameter agonist logistic fit (hillslope=1, EC50>0, top/bottom unconstrained).

The mark [1] stands for this setting: luminescence read at 6 and 24 hours, read-out: VAV1 Dmax %.
Setting [2] is: luminescence read at 6 and 24 hours, read-out: VAV1 Dmax %, class.
The mark [3] stands for this setting: luminescence read at 6 and 24 hours, read-out: VAV1 DC50.
Setting [4] is: luminescence read at 6 and 24 hours, read-out: VAV1 DC50 (nM), class.
[5] abbreviates: luminescence read at 6 and 24 hours after compound addition, read-out: VAV1 Dmax %.
Setting [6] is: luminescence read at 6 and 24 hours after compound addition, read-out: VAV1 Dmax %, class.
The mark [7] stands for this setting: luminescence read at 6 and 24 hours after compound addition, read-out: VAV1 DC50.
Setting [8] is: luminescence read at 6 and 24 hours after compound addition, read-out: VAV1 DC50 (nM), class.

Like-named read-outs stand apart in the source and are kept apart here.

`O=C1CCC(c2cccc(-c3ccc4c(c3)CCCO4)c2Cl)C(=O)N1` (stereo not drawn) [Compound 381, 3-[2-chloro-3-(3,4-dihydro-2H-1-benzopyran-6-yl)phenyl]piperidine-2,6-dione]: the Dmax (as a rule, the greatest extent of degradation seen) under setting [1] amounted to 96.5% and the Dmax under setting [2] is more than 90%. Further, the DC50 – broadly, the concentration giving 50% degradation – under setting [3] is 35.9 nM and the DC50 under setting [4] is not above 100 nM.

Turning to `O=C1CCC(c2cccc(-c3ccc(-n4c(F)cccc4=O)nc3)c2Cl)C(=O)N1` (stereo not drawn) [Compound 343, 3-(2-chloro-3-(6-fluoro-2-oxo-2H-[1,2′-bipyridin]-5′-yl)phenyl)piperidine-2,6-dione], the Dmax by setting is: under setting [1], 86.3%; under setting [2], 60 to 90%. The DC50 under setting [3] is 161 nM and the DC50 under setting [4] is 100 to 1000 nM.

Take `CC1(C)CCC(=O)N(Cc2ccc(-c3cccc(C4CCC(=O)NC4=O)c3Cl)cc2)C1` (stereo not drawn) [Compound 284]: the Dmax is, setting by setting: under setting [1], 98%; under setting [2], more than 90%. Further, the DC50 runs as follows: under setting [3], 3.48 nM; under setting [4], not above 100 nM.

Turning to `O=C1CCC(c2cccc(-c3ccc(-n4ccc(C(F)(F)F)cc4=O)cc3)c2Cl)C(=O)N1` (stereo not drawn) [Compound 236, 3-(2-chloro-4′-(2-oxo-4-(trifluoromethyl)pyridin-1(2H)-yl)-[1,1′-biphenyl]-3-yl)piperidine-2,6-dione], the Dmax under setting [1] was determined as 93.5% and the Dmax under setting [2] was more than 90%. For the same compound, the DC50 was 31.3 nM under setting [3] and not above 100 nM under setting [4].

Consider `C#Cc1ccc(C2CCC(=O)NC2=O)c(Cl)c1-c1ccc(OCc2ccn(C)n2)cc1` (stereo not drawn) [Compound 172, 3-(2-chloro-6-ethynyl-4′-((1-methyl-1H-pyrazol-3-yl)methoxy)-[1,1′-biphenyl]-3-yl)piperidine-2,6-dione], for which the Dmax runs as follows: under setting [1], 24.7%; under setting [2], less than 60%. The DC50 by setting is: under setting [3], not below 10000 nM; under setting [4], more than 1000 nM.

For the compound `O=C1CCC(c2cccc(-c3ccc(N4C(=O)CCC45CC5)nc3)c2Cl)C(=O)N1` (stereo not drawn) [Compound 384, 3-(2-chloro-3-(6-(5-oxo-4-azaspiro[2.4]heptan-4-yl)pyridin-3-yl)phenyl)piperidine-2,6-dione], the Dmax is 75.5% under setting [1] and 60 to 90% under setting [2]. Also, the DC50 reads like this: under setting [3], 122 nM; under setting [4], 100 to 1000 nM.

As to `O=C1CCC(c2cccc(-c3ccc(C4(n5ccccc5=O)CC4)cc3)c2Cl)C(=O)N1` (stereo not drawn) [Compound 241, 3-[2-chloro-3-[4-[1-(2-oxo-1-pyridyl)cyclopropyl]phenyl]phenyl]piperidine-2,6-dione], the Dmax was 77% under setting [1] and 60 to 90% under setting [2]. Besides, the DC50 by setting is: under setting [3], 920 nM; under setting [4], 100 to 1000 nM.

Turning to `O=C1CCC(c2cccc(-c3ccc(N4C(=O)Cc5ccccc54)cc3)c2Cl)C(=O)N1` (stereo not drawn) [Compound 468, 3-(2-chloro-4′-(2-oxoindolin-1-yl)-[1,1′-biphenyl]-3-yl)piperidine-2,6-dione], the Dmax under setting [1] was found to be 96.2% and the Dmax under setting [2] was more than 90%. For the same compound, the DC50 by setting is: under setting [3], 24.8 nM; under setting [4], not above 100 nM.

Turning to `COC(=O)c1ccc(Cc2ccc(-c3cccc(C4CCC(=O)NC4=O)c3Cl)cc2)n1C` (stereo not drawn) [Compound 375, methyl 5-((2′-chloro-3′-(2,6-dioxopiperidin-3-yl)-[1,1′-biphenyl]-4-yl)methyl)-1-methyl-1H-pyrrole-2-carboxylate], the Dmax under setting [1] worked out at 98% and the Dmax under setting [2] is more than 90%. Also, the DC50 by setting is: under setting [3], 14.2 nM; under setting [4], not above 100 nM.

With `O=C1CCC(c2cccc(-c3ccc4cn[nH]c4c3)c2Cl)C(=O)N1` (stereo not drawn) [Compound 484, 3-(2-chloro-3-(1H-indazol-6-yl)phenyl)piperidine-2,6-dione], the Dmax under setting [5] was 78.4% and the Dmax under setting [6] was 60 to 90%. The DC50 was 220 nM under setting [7] and 100 to 1000 nM under setting [8].

As to `CN1CC(=O)N(Cc2ccc(-c3cccc(C4CCC(=O)NC4=O)c3Cl)cc2)c2cnccc21` (stereo not drawn) [Compound 256], the Dmax is, setting by setting: under setting [1], 75.8%; under setting [2], 60 to 90%. For the same compound, the DC50 was 213 nM under setting [3] and 100 to 1000 nM under setting [4].

Consider `O=C1CCC(c2cccc(-c3ccc(Cc4ncco4)c(F)c3)c2Cl)C(=O)N1` (stereo not drawn) [Compound 385, 3-(2-chloro-3′-fluoro-4′-(oxazol-2-ylmethyl)-[1,1′-biphenyl]-3-yl)piperidine-2,6-dione], for which the Dmax is 97.8% under setting [1] and more than 90% under setting [2]. Moreover, the half-maximal degradation concentration (DC50) under setting [3] came out at 7 nM and the DC50 under setting [4] is not above 100 nM.

As for `O=C1CCC(c2cccc(-c3ccc(N4CC5(COC5)CC4=O)cc3)c2Cl)C(=O)N1` (stereo not drawn) [Compound 386, 3-(2-chloro-4′-(7-oxo-2-oxa-6-azaspiro[3.4]octan-6-yl)-[1,1′-biphenyl]-3-yl)piperidine-2,6-dione], the Dmax is, setting by setting: under setting [1], 29.2%; under setting [2], less than 60%. The DC50 reads like this: under setting [3], not below 10000 nM; under setting [4], more than 1000 nM.

As to `Cn1ccc(OCc2ccc(-c3cccc(C4CCC(=O)NC4=O)c3Cl)cc2)n1` (stereo not drawn) [Compound 160, 3-(2-chloro-4′-(((1-methyl-1H-pyrazol-3-yl)oxy)methyl)-[1,1′-biphenyl]-3-yl)piperidine-2,6-dione], the Dmax reads like this: under setting [1], 94.5%; under setting [2], more than 90%. Also, the DC50 by setting is: under setting [3], 18.5 nM; under setting [4], not above 100 nM.

Take `O=C1CCC(c2cccc(-c3ccc(NC(=O)c4ccon4)cc3)c2Cl)C(=O)N1` (stereo not drawn) [Compound 229, N-(2′-chloro-3′-(2,6-dioxopiperidin-3-yl)-[1,1′-biphenyl]-4-yl)isoxazole-3-carboxamide]: the Dmax is 82.7% under setting [1] and 60 to 90% under setting [2]. Moreover, the 50% degradation concentration (DC50) by setting is: under setting [3], 79.3 nM; under setting [4], not above 100 nM.

Take `O=C1CCC(c2cccc(-c3ccc(-n4ccccc4=O)cc3)c2Cl)C(=O)N1` (stereo not drawn) [Compound 185, 3-(2-chloro-4′-(2-oxopyridin-1(2H)-yl)-[1,1′-biphenyl]-3-yl)piperidine-2,6-dione]: the Dmax runs as follows: under setting [1], 97%; under setting [2], more than 90%. Also, the DC50 under setting [3] came to 7 nM and the DC50 under setting [4] is not above 100 nM.

On to `Cn1ccc(CN2C(=O)Cc3cc(-c4cccc(C5CCC(=O)NC5=O)c4Cl)ccc32)n1` (stereo not drawn) [Compound 496, 3-(2-chloro-3-(1-((1-methyl-1H-pyrazol-3-yl)methyl)-2-oxoindolin-5-yl)phenyl)piperidine-2,6-dione], for which the Dmax under setting [5] is 95.6% and the Dmax under setting [6] is more than 90%. Moreover, the DC50 under setting [7] amounted to 12.7 nM and the DC50 under setting [8] is not above 100 nM.

With `C[C@@H]1CCC(=O)N1c1ccc(-c2cccc(C3CCC(=O)NC3=O)c2Cl)cc1` (stereo partly drawn) [Compound 303], the Dmax is 93.5% under setting [1] and more than 90% under setting [2]. In addition, the DC50 is 13.9 nM under setting [3] and not above 100 nM under setting [4].

For `O=C1CCC(c2cccc(-c3ccc(N4C(=O)CCCC45CC5)c(F)c3)c2Cl)C(=O)N1` (stereo not drawn) [Compound 350, 3-(2-chloro-3′-fluoro-4′-(5-oxo-4-azaspiro[2.5]octan-4-yl)-[1,1′-biphenyl]-3-yl)piperidine-2,6-dione], the Dmax runs as follows: under setting [1], 97.3%; under setting [2], more than 90%. Moreover, the 50% degradation concentration (DC50) was 7.18 nM under setting [3] and not above 100 nM under setting [4].

For the compound `CCc1cc(-c2cccc(C3CCC(=O)NC3=O)c2Cl)ccc1N` (stereo not drawn) [Compound 101], the Dmax is 96% under setting [1] and more than 90% under setting [2]. For the same compound, the DC50 by setting is: under setting [3], 12.3 nM; under setting [4], not above 100 nM.

As for `O=C1CCC(c2cccc(-c3ccc(CN4C(=O)CCC45CC5)cc3)c2Cl)C(=O)N1` (stereo not drawn) [Compound 296], the Dmax by setting is: under setting [1], 93.8%; under setting [2], more than 90%. Also, the DC50 was 10.1 nM under setting [3] and not above 100 nM under setting [4].

Regarding `CC1(C)CCCC(=O)N1c1ccc(-c2cccc(C3CCC(=O)NC3=O)c2Cl)cc1` (stereo not drawn) [Compound 403, 3-(2-chloro-4′-(2,2-dimethyl-6-oxopiperidin-1-yl)-[1,1′-biphenyl]-3-yl)piperidine-2,6-dione], the greatest degradation seen (Dmax) is 98.2% under setting [1] and more than 90% under setting [2]. Besides, the DC50 runs as follows: under setting [3], 3.26 nM; under setting [4], not above 100 nM.

On to `O=C1CCC(c2cccc(-c3ccc(Oc4ccccn4)cc3)c2Cl)C(=O)N1` (stereo not drawn) [Compound 354, 3-(2-chloro-4′-(pyridin-2-yloxy)-[1,1′-biphenyl]-3-yl)piperidine-2,6-dione], for which the Dmax was 97.4% under setting [1] and more than 90% under setting [2]. The DC50 by setting is: under setting [3], 13.3 nM; under setting [4], not above 100 nM.

For the compound `CN1CC(=O)N(c2ccc(-c3cccc(C4CCC(=O)NC4=O)c3Cl)cc2)c2cncnc21` (stereo not drawn) [Compound 326], the Dmax was 90.9% under setting [1] and more than 90% under setting [2]. In addition, the 50% degradation concentration (DC50) was 16.2 nM under setting [3] and not above 100 nM under setting [4].
